Results published in PubChem BioAssay AID1205 (EPA DSSTox, 2008).
Active and inactive are the calls of the source.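 The calls were made as follows: active = tumour findings in long-term animal cancer tests in more than one sex, species or organ; inactive = no tumour finding and more than one negative test.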

Assay: DSSTox (CPDBAS) Carcinogenic Potency Database Summary MultiCellCall Results
Details: animal carcinogenicity bioassays, multi-cell call summary
Procedure, shortened: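 ActivityScore sums 50 for multispecies, 30 for multisex and 20 for multisite positivity. Based on the most positive experiment per sex-species across standardised chronic rodent and other animal cancer tests.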

| Structure (SMILES) | outcome |
| --- | --- |
| CCc1ccccc1 | active; multisite active; multisex active; multispecies active |
| O=C(O)[C@@H]1[C@H](C(=O)O)[C@@]2(Cl)C(Cl)=C(Cl)[C@]1(Cl)C2(Cl)Cl | active; multisite active; multisex active; multispecies active |
| O=C(c1ccccc1)C(O)c1ccccc1 (stereo not given) | inactive; multisex inactive; multispecies inactive |
| OCC(O)CCl (stereo not given) | inactive; multisex inactive |
| CC(CN1CC(=O)NC(=O)C1)N1CC(=O)NC(=O)C1 (stereo not given) | active; multisite active; multispecies active |
| O=C(O)CC[N+](=O)[O-] | inactive; multisex inactive; multispecies inactive |
| CC(O)COC(C)(C)C (stereo not given) | active; multisex active |
| O=C(O)CCl | inactive; multisex inactive; multispecies inactive |
| c1ccc(Nc2ccc(Nc3ccccc3)cc2)cc1 | inactive; multisex inactive; multispecies inactive |
| Oc1ccccc1O | active; multisex active; multispecies active |
| O=P1(NCCCl)OCCCN1CCCl (stereo not given) | active; multisite active; multisex active; multispecies active |
| Oc1ccc2ccccc2c1N=Nc1ccccc1 | active; multisex active |
| O=C1NS(=O)(=O)c2ccccc21 | inactive; multisex inactive; multispecies inactive |
| CC(C)CCC[C@@H](C)[C@H]1CC[C@H]2[C@@H]3CC=C4C[C@@H](OC(=O)Cc5ccc(N(CCCl)CCCl)cc5)CC[C@]4(C)[C@H]3CC[C@]12C | active; multisite active; multisex active; multispecies active |
| CN(C)CCOC(c1ccccc1)c1ccccc1 | inactive; multisex inactive; multispecies inactive |
| CC1CN(N=O)CC(C)O1 (stereo not given) | active; multisite active; multisex active |
| Cc1ccccc1 | active; multisite active; multisex active |
| O=NN1CCOC1 | active; multisite active; multisex active |
| N[C@@H](CCC(=O)O)C(=O)O | inactive; multisex inactive; multispecies inactive |
| CC(C)O | inactive; multisex inactive; multispecies inactive |

| Structure (SMILES) | outcome |
| --- | --- |
| O=C1CCC(=O)O1 | inactive; multisex inactive; multispecies inactive |
| Cn1c(N)nc2ncc(-c3ccccc3)cc21 | active; multisite active; multisex active; multispecies active |
| ClCCCl | active; multisite active; multisex active; multispecies active |
| C1CNCCN1 | inactive; multisex inactive |
| O=S(=O)(Oc1ccc(Cl)cc1)c1ccc(Cl)cc1 | inactive; multisex inactive |
| CCc1ccc(C(c2ccc(CC)cc2)C(Cl)Cl)cc1 | inactive; multisex inactive; multispecies inactive |
| C/C=N/N(C)C=O | active; multisite active; multisex active |
| [O]=[Mo](=[O])=[O] | active; multisex active |
| O=C1CN=C(c2ccccc2)c2cc(Cl)ccc2N1CC1CC1 | inactive; multisex inactive; multispecies inactive |
| Nc1ccc(NCCO)c([N+](=O)[O-])c1 | inactive; multisex inactive; multispecies inactive |
| O=C1Nc2ccc(Cl)cc2C(c2ccccc2)=NC1O (stereo not given) | active; multisite active; multisex active |
| Oc1ccc(OCc2ccccc2)cc1 | inactive; multisex inactive |
| C#C[C@]1(OC(C)=O)CC[C@H]2[C@@H]3CCC4=C[C@@H](OC(C)=O)CC[C@@H]4[C@H]3CC[C@@]21C | inactive; multispecies inactive |
| C=C(C)[C@H]1CC=C(C)C(=O)C1 | inactive; multisex inactive |
| CCSCCC(N)C(=O)O (stereo not given) | active; multisex active; multispecies active |
| Cc1c(N(C)C)c(=O)n(-c2ccccc2)n1C | inactive; multisex inactive |
| Nc1c(Cl)cc([N+](=O)[O-])cc1Cl | inactive; multisex inactive |
| NC1CCCCC1 | inactive; multisex inactive; multispecies inactive |
| CN(C)CCN(Cc1ccco1)c1ccccn1 | inactive; multisex inactive |
| CC[C@H](OC(C)=O)C(C[C@H](C)N(C)C)(c1ccccc1)c1ccccc1 | active; multisex active |
